Measurements published in patent US5283183A, “Cyclic FR-900520 microbial biotransformation agent” (Merck & Co., Inc., priority 1992, dated 1994).
Where “and” joins values, the source holds several entries; their conditions need not be identical. Equal entries are not always repeated. Entries after “also recorded” stand apart in the source; their conditions may differ. Where two headings read alike, the source gives them in different places.

Columns and labels:
[1] = reputed; EPO Publication No. 0184162; cited from earlier work
mouse T lymphocytes = assay: T-cell proliferation assay (ionomycin + PMA induced, tritiated thymidine uptake); format: cell-based, mouse (C57B1/6)
Experimental: The principle of this assay is to measure the proliferation of mouse T lymphocytes stimulated with the combination of ionomycin plus PMA.
Cells were pelleted by centrifugation at 1500 rpm for 8 minutes. Contaminating red cells were removed by treating the pellet with ammonium chloride lysing buffer (GIBCO) for 2 minutes at 4° C. Cold medium was added and cells were again centrifuged at 1500 rpm for 8 minutes. T lymphocytes were then isolated by separation of the cell suspension on nylon wool columns as follows: Nylon wool columns were prepared by packing approximately 4 grams of washed and dried nylon wool into 20 ml plastic syringes. The columns were sterilized by autoclaving at 250° F. for 30 minutes. Nylon wool columns were wetted with warm (37° C.) culture medium and rinsed with the same medium. Washed spleen cells resuspended in warm medium were slowly applied to the nylon wool. The columns were then incubated in an upright position at 37° C. for 1 hour. Non-adherent T lymphocytes were eluted from the columns with warm culture medium and the cell suspensions were spun as above.
The cell suspension was immediately distributed into 96 well flat-bottom microculture plates (Costar) at 200 μl/well. […] The proliferation of T lymphocytes was assessed by measurement of tritiated thymidine incorporation. After 44 hours of culturing, the cells were pulse-labelled with 2 μCi/well of tritiated thymidine (NEN, Cambridge, Mass.). After another 4 hours of incubation, cultures were harvested on glass fiber filters using a multiple sample harvester. Radioactivity of filter discs corresponding to individual wells was measured by standard liquid scintillation counting methods (Betacounter). Mean counts per minute of replicate wells were calculated and the results expressed as percent inhibition of tritiated thymidine uptake (proliferation) as follows: [formula]

Row | SMILES | times more effective than cyclosporin [1] [times] | IC50 (mouse T lymphocytes; 5 additional experiments, individual values) | Inhibition of T-cell proliferation after addition of IL2 (mouse T lymphocytes; 50 units/ml recombinant IL2 at the initiation of culture) | IC50 (mouse T lymphocytes; Mus musculus, T-lymphocyte, based on 5 additional experiments, read-out: IC50, general range) [ng/mL] | IC50 (mouse T lymphocytes; Mus musculus, T-lymphocyte, mean of all 6 runs, ± SEM, read-out: mean IC50) [nM] | IC50 (mouse T lymphocytes; Mus musculus, T-lymphocyte, run of the Table, read-out: IC50) [ng/mL] | inhibition at 0.0008 µM (mouse T lymphocytes; Mus musculus, T-lymphocyte, Compound I 0.8 nM, read-out: Percent of Inhibition) [%] | inhibition at 0.0016 µM (mouse T lymphocytes; Mus musculus, T-lymphocyte, Compound I 1.6 nM, read-out: Percent of Inhibition) [%] | inhibition at 0.0031 µM (mouse T lymphocytes; Mus musculus, T-lymphocyte, Compound I 3.1 nM, read-out: Percent of Inhibition) [%] | inhibition at 0.0062 µM (mouse T lymphocytes; Mus musculus, T-lymphocyte, Compound I 6.2 nM, read-out: Percent of Inhibition) [%] | inhibition at 0.0125 µM (mouse T lymphocytes; Mus musculus, T-lymphocyte, Compound I 12.5 nM, read-out: Percent of Inhibition) [%] | inhibition at 0.025 µM (mouse T lymphocytes; Mus musculus, T-lymphocyte, Compound I 25.0 nM, read-out: Percent of Inhibition) [%] | inhibition at 0.05 µM (mouse T lymphocytes; Mus musculus, T-lymphocyte, Compound I 50.0 nM, read-out: Percent of Inhibition) [%] | immunosuppressant activity (mouse T lymphocytes; qualitative statement)
1 | C=CC[C@@H]1/C=C(\C)C[C@H](C)C[C@H](OC)[C@H]2O[C@@](O)(C(=O)C(=O)N3CCCC[C@H]3C(=O)O[C@H](/C(C)=C/[C@@H]3CC[C@@H](O)[C@H](OC)C3)[C@H](C)[C@@H](O)CC1=O)[C@H](C)C[C@@H]2OC [FK-506] | 100 | – | – | – | – | – | – | – | – | – | – | – | – | –
2 | CC[C@@H]1C=C2COC1(O)C[C@H](O)[C@@H](C)[C@@H](/C(C)=C/[C@@H]1CC[C@@H](O)[C@H](OC)C1)OC(=O)[C@@H]1CCCCN1C(=O)C(=O)[C@]1(O)O[C@H]([C@@H](OC)C[C@@H](C)C2)[C@@H](OC)C[C@H]1C [Compound I] | – | 1.92 ng/mL and 5.20 ng/mL and 4.80 ng/mL and 4.50 ng/mL | reversed | 1.57 to 5.2 | 4.36 ± 1.7 | 3.17 | 16 | 19 | 55 | 78 | 91 | 94 | 94 | positive inhibition of T-cell activation; also recorded: positive immunosuppressive activity
